# Data reported in a melting point compilation (Tetko et al.; mined from patent text by program, amines drawn as free bases though some values may be those of a salt).
row,Compound,melting point
1,CC(=O)c1cc2c(s1)SCCc1cc(=O)n(-c3ccc(Cl)cc3)nc1-2,248 to 250 °C
2,CCP(=S)(CC)OC(=O)/C=N\OCc1csc(N)n1,87 to 88 °C
3,C(=Cc1ccc(C=Cc2ccccc2)c2ccccc12)c1ccccc1,189 °C
4,CCc1cc(C(=O)c2ccccc2Cl)c(-n2c(C)nnc2CNC(=O)Nc2ccccc2)s1,141 to 143 °C
5,O=C(O)c1cnn(-c2c(Cl)cc(C(F)(F)F)cc2Cl)n1,155 to 157 °C
6,CCCCOC(=O)c1c(C)nc2cc(OC)c(OC)cc2c1-c1ccc(OC)c(OC)c1,119 to 120 °C
7,Cc1c2c(cc3c(-c4ccccc4F)noc13)CC(C(=O)O)O2 (centres undefined),188 to 189 °C
8,O=S(=O)(c1ccc(Oc2ccc(Cl)c(Cl)c2)cc1)C(F)(F)F,77 to 78 °C
9,CC(C)N1CCC2(CC1)CSC1=C(O2)c2ccccc2C(=O)C1=O,197 to 198 °C
10,COc1cc(CN2CCN(c3ccc(O)cc3)CC2)nc(-c2ccccc2)n1,166 to 167 °C
11,O=C1CC(c2ccccc2)Cc2c1ccn2C(=O)c1ccccc1 (centres undefined),140 to 142 °C
12,NC(=O)NN=Cc1c(-c2ccccc2)nn2ccccc12,221 to 222 °C
13,CCOC(=O)c1ccc(-c2ccc(-c3ccccc3)c(-c3ccc4c(c3)C(C)(C)CCC4(C)C)c2)nc1,105 to 107 °C
14,Cc1ccc(NC(=O)N[C@]2(C3CCCCC3)N=Cc3ccccc3N(C)C2=O)cc1N(C)c1nnn[nH]1,223 to 225 °C
15,COc1ccc(-c2nc(Sc3nc(-c4ccc(OC)cc4)c(-c4ccc(OC)cc4)[nH]3)[nH]c2-c2ccc(OC)cc2)cc1,244 to 245 °C
16,Cc1cc2c(nc1OCCCCN1CCN(c3cccc4ccccc34)CC1)NC(=O)CC2,76 to 78 °C
17,N#CCc1cccc(-c2onc3ccccc23)c1,122 to 124 °C
18,Clc1nc(-c2ccccc2)no1,40 to 42 °C
19,Cc1ccc(C=CC(C)N(O)C(N)=O)o1 (centres undefined),122 to 124 °C
20,COc1ccnc(CC(C)(C)C(=O)O)c1,150 to 151 °C
21,Cc1c(O)c(=O)ccn1CCO,164 to 165 °C
22,CNC(Cc1ccccc1NC(=O)C(C)(C)C)c1cccnc1 (centres undefined),91.5 to 96 °C
23,CCCCCCCc1ccc(C2CC(CCCCCC)C(=O)O2)cc1 (centres undefined),45.9 to 48 °C
24,On1nnc2cccnc21,216 to 217 °C
25,CCOC(=O)c1c(SCOC)nc2c(F)c(F)c(F)cc2c1O,91 to 94 °C
26,CCOC(=O)N1CCN(c2ncnc3[nH]ncc23)CC1,245 to 247 °C

row,Compound,melting point
1,CCCCCCCCCCCCCCCCCCOc1cc(N)cc(C(=O)N(CC(=O)O)CC(=O)O)c1,108 to 120 °C
2,N#Cc1cc(C(=O)Cl)n(/C=C/c2ccccc2)c1,119 to 121 °C
3,COC(=O)c1nc2n(n1)-c1ccccc1N(c1cccc(C(F)(F)F)c1)C2,204 to 206 °C
4,CON=Cc1ncn2c1[C@@H]1CCCN1C(=O)c1c(Cl)cccc1-2,194 to 195 °C
5,COc1cc(C=O)cc2c1OC1(C=C2Br)CCC1,128 to 129 °C
6,Cc1c(O)ccc(S)c1C,98 to 99 °C
7,CCOc1cc(N)c(Cl)cc1C(=O)NCC1CN(CC2CCN(C(N)=O)CC2)CCO1 (centres undefined),201 to 207 °C
8,CC(=O)Nc1ccc2c(c1)CC1(OC1c1ccccc1)C2=O (centres undefined),195 to 197 °C
9,O=C(O)CON=c1c2nccc3c(Cl)ccc(c32)n2cccc12,202 °C
10,O=C(c1cccc(C(F)(F)F)c1)c1cc2c(F)ccc(Br)c2o1,114 to 115 °C
11,CCOc1ccc(-n2c(C(C)N(Cc3cccnc3)C(=O)OC(C)(C)C)nc3ccccc3c2=O)cc1 (centres undefined),67.5 °C
12,C=Cc1c(C(=O)O)nc(Cl)c(F)c1N,164 to 166 °C
13,CC(C)(C)OCCOc1cc(N)c([N+](=O)[O-])cc1I,144 to 146 °C
14,NCC1Cc2cc(C(F)(F)F)cc(-c3ccoc3)c2O1 (centres undefined),> 250 °C
15,CC(C)CS(=O)(=O)c1ccnc(OS(C)(=O)=O)c1,75.5 to 76.5 °C
16,CP(C)(=O)OCc1ccccc1,41 to 45 °C
17,COc1ccnc(C(=O)NCCNC(=O)OC(C)(C)C)c1,106 to 107 °C
18,CCOc1cc(C(=O)O)cc(N)c1-c1ccccc1,138 °C
19,CNC(=O)c1ccc(-c2nn(Cc3ccccc3)c3ccccc23)o1,182 to 183 °C
20,O=C1Nc2c(Cl)cccc2C12COc1cc3c(cc12)CCO3 (centres undefined),> 250 °C
21,OCC1C(c2ccc(F)cc2)CCC12C=Cc1ccccc12 (centres undefined),84 to 86 °C
22,CC(C)CCCCCCCCCCCC(=O)Nc1ccc(O)c(O)c1,85 to 86 °C
23,CC1(CN2CCN(Cc3ccccc3)C2=O)Cn2cc([N+](=O)[O-])nc2O1 (centres undefined),180 to 181 °C
24,CCc1cc(O)c2cnn(C(C)=O)c2c1,161 to 163 °C
25,CSC1C(=O)Nc2ccc(Oc3ccc(F)c(C(F)(F)F)c3Cl)cc21 (centres undefined),137 to 142 °C
26,O=C1CCC(N2Cc3c(OCc4cc(CN5CCOCC5)on4)cccc3C2=O)C(=O)N1 (centres undefined),218 to 220 °C

row,Compound,melting point
1,Cc1cc(=O)n(C)c2c1C(=O)CC(c1ccsc1)C2 (centres undefined),156 to 157 °C
2,CN1CCc2cc(Br)[nH]c2C(c2ccccc2)C1 (centres undefined),132 to 133 °C
3,CC(C)(C)OC(=O)Nc1ccccc1C1Cc2ccccc2N1C(=O)OC(C)(C)C (centres undefined),148 to 150 °C
4,O=C1CC(Br)(CC(Br)(Br)Br)O1 (centres undefined),71 to 73 °C
5,CCN(CC)c1ccc2cc(C(=O)OCCCCCCO)c(=O)oc2c1,85 to 86 °C
6,CC(C)(C)NCC(O)c1cc(Br)c(N)c([N+](=O)[O-])c1 (centres undefined),151 to 152 °C
7,CCOC(=O)c1cccc(Nc2ncnc3[nH]cc(C(=O)c4ccccc4)c23)c1,256 to 258 °C
8,COc1ccc(CC#N)c(CCNC(C)=O)c1OC,134 to 136 °C
9,COc1ccc2[nH]c(=O)n3c(=O)[nH]nc3c2c1,> 350 °C
10,CCOc1nn(C(=O)NS(=O)(=O)c2c(C(=O)OC)csc2C)c(=O)n1C,163 °C
11,Cc1ccc(Cl)cc1NC(=S)Nc1nccs1,197 to 198 °C
12,COc1ccc(CN(C)CCc2ccc(NC(=O)c3cccc4c(=O)c5cccc(F)c5[nH]c34)c(C)c2)cc1OC,125 °C
13,CNC(=O)C(NC(=O)C(CC(C)C)C(S)CC(=O)OC)C(C)OCc1ccccc1 (centres undefined),113 to 119 °C
14,CC(C)(C)c1cc(CN2CCN(c3ccc([N+](=O)[O-])cc3)CC2)cc(C(C)(C)C)c1O,178 °C
15,COc1ccc(-c2[nH]cnc2-c2cc(OC)c(N)c(OC)c2)cc1O,142 to 144 °C
16,CCCCCCOc1ccc2c(c1)C=C(C=O)CO2,36 to 38 °C
17,CCSc1c(C=O)c(=O)n(C)c(=O)n1C,72 °C
18,Cc1cccc(Nc2cc(Nc3ccc(OCCCN(C)C)cc3)ncn2)c1,204 to 207 °C
19,O=C(O)C1OCC(O)C(O)C1O (centres undefined),194 to 196 °C
20,O=C(O)c1ccc2c3c(ccc(C(O)=NC4CCCCC4)c13)CC2,264 to 265 °C
21,CCOCCOC(=O)C(=O)Nc1nc(-c2ccccc2)cs1,109 to 110 °C
22,COC(=O)c1ccc2occ(-c3ccc(SC)c(Cl)c3)c2c1,115 to 116 °C
23,C=C(C)Cc1c(C)c(NC=O)c(C)c(CC(=C)C)c1O,169 to 170 °C
24,COc1ccc(F)c(C(N)=O)c1,122 to 124 °C
25,CCC1(C)NC(=O)N=C1SCc1ccccc1N(C)C (centres undefined),111 to 113 °C
26,Cc1cnc2c(c1)CCCC2S(=O)(=O)c1ccccc1 (centres undefined),84 to 86 °C

row,Compound,melting point
1,CC1C(=O)N(c2ccccc2OCCCCBr)Sc2ccccc21 (centres undefined),93 °C
2,CCc1nc2c(cnn2CC)c(NC2CCOCC2)c1CNC(=O)c1cccc(C(=O)NCc2ccc(C)c(Br)c2)c1,175 to 176 °C
3,COc1cccc(Nc2ccnc(Nc3cc(OC)c(OC)c(OCc4ccccc4)c3)n2)c1,83 to 84 °C
4,Cc1cc(C2=NN(C)C(=O)C2)c(Cl)cc1Cl,196 to 198 °C
5,CCCC(=O)c1cnc2c(OCCCN(C)C)cccc2c1Nc1ccccc1C,109 to 110 °C
6,CCn1c(-c2ccccc2)c(C2=CCC(C(=O)O)(C(=O)O)CC2)c2ccccc21,111 to 112 °C
7,O=C(OCC1CC1)c1ncn2c1[C@@H]1CCN1C(=O)c1c(Br)cccc1-2,212 to 213 °C
8,CC(=O)Nc1ncc(C)cc1C(C)=O,99 to 100 °C
9,COc1ccc2c(c1)c1c3c(c(-c4ccccc4)cc1n2CCCCCCO)C(=O)NC3=O,170 to 173 °C
10,Cc1noc(C(=O)NC(C)C)c1C(=O)O,86 to 92 °C
11,CCCc1ncc(CO)c(NCc2ccc(-c3ccccc3-c3nnnn3C(c3ccccc3)(c3ccccc3)c3ccccc3)cc2)n1,134 to 137 °C
12,NS(=O)(=O)c1nc2ccc(OC(=O)c3ccccc3)cc2s1,208 to 210 °C
13,COc1nc(-c2ccc(F)cc2)c(-c2ccc(S(C)(=O)=O)cc2)cc1C#N,202 to 204 °C
14,NC(=O)COCCN1CCN2c3ccccc3Cc3ccccc3C2C1 (centres undefined),66 to 68 °C
15,Cc1c(NC(=O)c2ccc(OCc3ccc(C(F)(F)F)cc3)cc2)ccc2cc(CN3CCCC3)cnc12,196 to 197 °C
16,CCOC(=O)N(c1cccc(C(F)(F)F)c1)c1ccccc1N=NC(NC(=O)CCl)(C(=O)OCC)C(=O)OCC,76 to 79 °C
17,Cn1c(CO)nc([N+](=O)[O-])c1C#N,122 to 124 °C
18,O=C(O)Cc1ccc(CCOc2ccc(CC3SC(=O)NC3=O)cc2)nc1 (centres undefined),144 to 145 °C
19,O=C1CC2CCc3cc(-n4ccc(=O)cc4)ccc3C2=NN1 (centres undefined),> 300 °C
20,COc1ccc(-c2ccc(C(=O)O)cc2)cc1,250 to 254 °C
21,CCOC(=O)C1=C(C)Nc2nc(N3CCOCC3)nc(N3CCOCC3)c2C1c1cccc(C#N)c1 (centres undefined),210 °C
22,Cc1noc(-c2cccc(C3=Nc4ccc(-c5ccc(F)cc5)cc4NC(=O)C3)c2)n1,266 to 268 °C
23,CCC(=NO)C(C)(C)NCC(Cn1ccnc1[N+](=O)[O-])ONC(C)(C)C(CC)=NO (centres undefined),143 to 144 °C
24,Cc1ccccc1-c1c(CNC(=O)Nc2ccc(F)cc2F)oc2ccc(Cl)cc12,178 to 180 °C
25,CC(=O)c1ccc2nc(N)[nH]c2c1,228 to 234 °C
26,CCC(=O)c1ncn2c1CN(C)C(=O)c1ccccc1-2,215 to 216 °C
